Results from patent US9833497B2, “Human originated EGF domain proteins and use of the same” (CHENGDU SOURCEBIO LIMITED-LIABILITY COMPANY, priority 2013, dated 2017).

How the values were obtained:
Format in all cases: cell-based
[1] = tested on: E. coli DH5α; experiment: Antibacterial activity: MIC and growth curve against E. coli DH5α in 96-well plate; details: minimal inhibitory concentration against E. coli DH5α; 96-well plate, 5×10^5 CFU/mL, 37° C., judged after 8 h
Method in brief: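 Log-phase DH5α (OD600 about 0.5, 37° C, 185 rpm in LB) was pelleted, resuspended in fresh LB and seeded at 5×10^5 CFU/mL with recombinant protein at 50, 25 and 12.5 μg/mL (two-fold series), in triplicate. Plates were shaken at 175 rpm, 37° C, and OD600 was read every 30 min. MIC was the lowest concentration with no growth.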

[2] = tested on: E. coli BL21; experiment: MIC against Gram-negative bacteria: E. coli BL21; details: E. coli BL21; 5×10^5 CFU/mL; 10 h cultivation at 37° C.
Method in brief: (§1)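 Antibacterial activity of purified human EGF domain proteins: two-fold concentration series, triplicate wells, LB broth, 5×10^5 CFU/mL bacteria, 37° C shaking incubation. The lowest concentration without growth defines the MIC.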

[3] = tested on: Pseudomonas aeruginosa; experiment: MIC against Gram-negative bacteria: Pseudomonas aeruginosa; details: Pseudomonas aeruginosa; 5×10^5 CFU/mL; 10 h cultivation at 37° C.
Method in brief: as §1

[4] = tested on: Klebsiella pneumonia; experiment: MIC against Gram-negative bacteria: Klebsiella pneumonia; details: Klebsiella pneumonia; 5×10^5 CFU/mL; 10 h cultivation at 37° C.
Method in brief: as §1

[5] = tested on: Enterobacter cloacae; experiment: MIC against Gram-negative bacteria: Enterobacter cloacae; details: Enterobacter cloacae; 5×10^5 CFU/mL; 10 h cultivation at 37° C.
Method in brief: as §1

[6] = tested on: Aeromonas hydrophila; experiment: MIC against Gram-negative bacteria: Aeromonas hydrophila; details: Aeromonas hydrophila; 5×10^5 CFU/mL; 10 h cultivation at 37° C.
Method in brief: as §1

[7] = tested on: Citrobacter diversus; experiment: MIC against Gram-negative bacteria: Citrobacter diversus; details: Citrobacter diversus; 5×10^5 CFU/mL; 10 h cultivation at 37° C.
Method in brief: as §1

[8] = tested on: Moraxella catarrhalis; experiment: MIC against Gram-negative bacteria: Moraxella catarrhalis; details: Moraxella catarrhalis; 5×10^5 CFU/mL; 10 h cultivation at 37° C.
Method in brief: as §1

[9] = tested on: Proteus mirabilis; experiment: MIC against Gram-negative bacteria: Proteus mirabilis; details: Proteus mirabilis; 5×10^5 CFU/mL; 10 h cultivation at 37° C.
Method in brief: as §1

[10] = tested on: Proteus vulgaris; experiment: MIC against Gram-negative bacteria: Proteus vulgaris; details: Proteus vulgaris; 5×10^5 CFU/mL; 10 h cultivation at 37° C.
Method in brief: as §1

[11] = tested on: Serratia marcescens; experiment: MIC against Gram-negative bacteria: Serratia marcescens; details: Serratia marcescens; 5×10^5 CFU/mL; 10 h cultivation at 37° C.
Method in brief: as §1

Substance: PRT1463 (CDCDTAGSLPGTVCNAKTGQCICKPNVEGRQCNKCLEGNFYLRQNNSFLCLP; listed as Homo sapiens)
- MIC [1]: 50 µg/mL
- MIC against E. coli BL21 [2]: 25 µg/mL
- MIC against P. aeruginosa [3]: 12.5 µg/mL
- MIC against K. pneumonia [4]: 25 µg/mL
- MIC against E. cloacae [5]: 50 µg/mL
- MIC against A. hydrophila [6]: 12.5 µg/mL
- MIC against C. diversus [7]: 50 µg/mL
- MIC against M. catarrhalis [8]: 25 µg/mL
- MIC against P. mirabilis [9]: 12.5 µg/mL
- MIC against P. vulgaris [10]: 25 µg/mL
- MIC against S. marcescens [11]: 12.5 µg/mL

Substance: PRT1464 (CNCDKTGTINGSLLCNKSTGQCPCKLGVTGLRCNQCEPHRYNLTIDNFQHCQM; listed as Homo sapiens)
- MIC [1]: 12.5 µg/mL
- MIC against E. coli BL21 [2]: 25 µg/mL
- MIC against P. aeruginosa [3]: 12.5 µg/mL
- MIC against K. pneumonia [4]: 12.5 µg/mL
- MIC against E. cloacae [5]: 12.5 µg/mL
- MIC against A. hydrophila [6]: 12.5 µg/mL
- MIC against C. diversus [7]: 12.5 µg/mL
- MIC against M. catarrhalis [8]: 12.5 µg/mL
- MIC against P. mirabilis [9]: 12.5 µg/mL
- MIC against P. vulgaris [10]: 25 µg/mL
- MIC against S. marcescens [11]: 50 µg/mL

Substance: PRT1465 (CECDSLGTLPGTICDPISGQCLCVPNRQGRRCNQCQPGFYISPGNATGCLP; listed as Homo sapiens)
- MIC [1]: 12.5 µg/mL
- MIC against E. coli BL21 [2]: 25 µg/mL
- MIC against P. aeruginosa [3]: 50 µg/mL
- MIC against K. pneumonia [4]: 12.5 µg/mL
- MIC against E. cloacae [5]: 25 µg/mL
- MIC against A. hydrophila [6]: 50 µg/mL
- MIC against C. diversus [7]: 25 µg/mL
- MIC against M. catarrhalis [8]: 12.5 µg/mL
- MIC against P. mirabilis [9]: 50 µg/mL
- MIC against P. vulgaris [10]: 25 µg/mL
- MIC against S. marcescens [11]: 12.5 µg/mL

Substance: PRT1466 (CSCHTTGAVNHICNSLTGQCVCQDASIAGQRCDQCKDHYFGFDPQTGRCQP; listed as Homo sapiens)
- MIC [1]: 50 µg/mL
- MIC against E. coli BL21 [2]: 25 µg/mL
- MIC against P. aeruginosa [3]: 12.5 µg/mL
- MIC against K. pneumonia [4]: 50 µg/mL
- MIC against E. cloacae [5]: 12.5 µg/mL
- MIC against A. hydrophila [6]: 50 µg/mL
- MIC against C. diversus [7]: 12.5 µg/mL
- MIC against M. catarrhalis [8]: 50 µg/mL
- MIC against P. mirabilis [9]: 25 µg/mL
- MIC against P. vulgaris [10]: 12.5 µg/mL
- MIC against S. marcescens [11]: 25 µg/mL

Substance: PRT1467 (QPQDCPPSTCLNGGTCHLGTRHHLACLCPEGFTGLYCE; listed as Homo sapiens)
- MIC [1]: 25 µg/mL
- MIC against E. coli BL21 [2]: 50 µg/mL
- MIC against P. aeruginosa [3]: 25 µg/mL
- MIC against K. pneumonia [4]: 12.5 µg/mL
- MIC against E. cloacae [5]: 50 µg/mL
- MIC against A. hydrophila [6]: 25 µg/mL
- MIC against C. diversus [7]: 12.5 µg/mL
- MIC against M. catarrhalis [8]: 25 µg/mL
- MIC against P. mirabilis [9]: 50 µg/mL
- MIC against P. vulgaris [10]: 25 µg/mL
- MIC against S. marcescens [11]: 12.5 µg/mL

Substance: PRT1471 (GKNWCEEDMENGGCEYLCLPAPQINDHSPKYTCSCPSGYNVEENGRDCQ; listed as Homo sapiens)
- MIC [1]: 12.5 µg/mL
- MIC against E. coli BL21 [2]: 25 µg/mL
- MIC against P. aeruginosa [3]: 50 µg/mL
- MIC against K. pneumonia [4]: 12.5 µg/mL
- MIC against E. cloacae [5]: 50 µg/mL
- MIC against A. hydrophila [6]: 25 µg/mL
- MIC against C. diversus [7]: 50 µg/mL
- MIC against M. catarrhalis [8]: 25 µg/mL
- MIC against P. mirabilis [9]: 25 µg/mL
- MIC against P. vulgaris [10]: 50 µg/mL
- MIC against S. marcescens [11]: 25 µg/mL

Substance: PRT1472 (LEHPCASLCCGHGTCIDGIGSFSCDCRSGWEGRFCQ; listed as Homo sapiens)
- MIC [1]: 50 µg/mL
- MIC against E. coli BL21 [2]: 50 µg/mL
- MIC against P. aeruginosa [3]: 25 µg/mL
- MIC against K. pneumonia [4]: 25 µg/mL
- MIC against E. cloacae [5]: 12.5 µg/mL
- MIC against A. hydrophila [6]: 25 µg/mL
- MIC against C. diversus [7]: 12.5 µg/mL
- MIC against M. catarrhalis [8]: 25 µg/mL
- MIC against P. mirabilis [9]: 12.5 µg/mL
- MIC against P. vulgaris [10]: 25 µg/mL
- MIC against S. marcescens [11]: 50 µg/mL
